Reference: ChEMBL document CHEMBL1201862, “PubChem BioAssay data set” (2004)
Calls of active or inactive are those of the source.

Columns and labels:
[1] = target: T1, Replicative DNA helicase DnaB (Mycobacterium tuberculosis, UniProt P9WMR3); test: DnaB intein splicing inhibitors, dose response, biochemical, cell-free fluorescence (AID 449749); format: functional
T1 sequence (P9WMR3 whole entry): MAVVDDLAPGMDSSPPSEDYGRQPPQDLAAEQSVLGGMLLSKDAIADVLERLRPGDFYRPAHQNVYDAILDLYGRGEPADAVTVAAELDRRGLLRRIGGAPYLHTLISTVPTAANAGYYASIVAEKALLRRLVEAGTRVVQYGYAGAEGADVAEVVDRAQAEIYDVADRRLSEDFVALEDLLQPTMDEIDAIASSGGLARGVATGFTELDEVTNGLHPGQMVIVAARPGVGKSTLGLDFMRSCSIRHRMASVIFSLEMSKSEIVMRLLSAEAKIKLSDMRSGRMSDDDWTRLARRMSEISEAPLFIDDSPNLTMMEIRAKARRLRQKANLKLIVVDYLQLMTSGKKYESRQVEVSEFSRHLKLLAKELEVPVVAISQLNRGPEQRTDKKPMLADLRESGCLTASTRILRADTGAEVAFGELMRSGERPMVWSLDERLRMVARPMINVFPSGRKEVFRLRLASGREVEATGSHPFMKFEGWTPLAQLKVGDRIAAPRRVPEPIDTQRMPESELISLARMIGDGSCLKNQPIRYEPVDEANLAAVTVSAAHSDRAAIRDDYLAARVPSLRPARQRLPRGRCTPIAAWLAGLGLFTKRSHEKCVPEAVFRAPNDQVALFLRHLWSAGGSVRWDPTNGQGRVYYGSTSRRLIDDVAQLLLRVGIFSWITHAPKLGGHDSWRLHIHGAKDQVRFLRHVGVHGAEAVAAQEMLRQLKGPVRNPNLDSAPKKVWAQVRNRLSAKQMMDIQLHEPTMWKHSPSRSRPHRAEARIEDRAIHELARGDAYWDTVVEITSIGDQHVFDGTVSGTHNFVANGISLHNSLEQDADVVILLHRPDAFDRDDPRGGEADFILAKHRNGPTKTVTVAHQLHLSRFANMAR

[2] = target: T2, Protein RecA (Mycobacterium tuberculosis, UniProt P9WHJ3); test: Fluorescence Cell-Free Homogeneous Dose Retest to Identify Inhibitors of RecA-Intein Splicing Activity. [Related pubchem assays (depositor defined):AID2097, AID2223, AID489010, AID492950]; format: functional
T2 sequence (P9WHJ3 whole entry): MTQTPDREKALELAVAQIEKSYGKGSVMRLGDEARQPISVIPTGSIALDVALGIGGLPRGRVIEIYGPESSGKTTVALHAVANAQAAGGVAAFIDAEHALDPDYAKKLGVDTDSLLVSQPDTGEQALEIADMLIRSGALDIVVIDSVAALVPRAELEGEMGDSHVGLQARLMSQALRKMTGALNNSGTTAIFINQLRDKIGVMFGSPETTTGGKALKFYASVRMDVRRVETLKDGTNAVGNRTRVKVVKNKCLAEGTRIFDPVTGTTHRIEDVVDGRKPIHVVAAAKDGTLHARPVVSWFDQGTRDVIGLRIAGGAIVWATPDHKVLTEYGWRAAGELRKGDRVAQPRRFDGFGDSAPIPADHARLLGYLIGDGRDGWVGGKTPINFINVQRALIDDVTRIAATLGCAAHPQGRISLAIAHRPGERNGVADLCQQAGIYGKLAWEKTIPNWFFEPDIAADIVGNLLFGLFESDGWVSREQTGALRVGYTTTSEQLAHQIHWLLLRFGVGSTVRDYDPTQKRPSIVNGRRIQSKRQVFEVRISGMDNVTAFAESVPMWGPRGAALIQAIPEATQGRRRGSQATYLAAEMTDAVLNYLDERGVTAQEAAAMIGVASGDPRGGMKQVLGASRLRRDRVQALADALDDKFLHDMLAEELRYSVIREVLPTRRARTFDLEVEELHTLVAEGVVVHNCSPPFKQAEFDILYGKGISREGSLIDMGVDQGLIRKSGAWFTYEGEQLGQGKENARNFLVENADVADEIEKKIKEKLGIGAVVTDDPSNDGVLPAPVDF

[3] = target: T3, Heat shock factor protein 1 (Mus musculus, UniProt P38532); test: decrease of HSF1-responsive luciferase luminescence – cell-based, NIH3T3, dose retest, confirmation (AID 2382); format: functional;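 also: NIH3T3 fibroblasts with HSF1-driven luciferase reporter stressed by proteasome inhibitor MG132; luminescence from HSF1-driven luciferase expression after 8 hours of MG132 stress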
T3 sequence (P38532 whole entry): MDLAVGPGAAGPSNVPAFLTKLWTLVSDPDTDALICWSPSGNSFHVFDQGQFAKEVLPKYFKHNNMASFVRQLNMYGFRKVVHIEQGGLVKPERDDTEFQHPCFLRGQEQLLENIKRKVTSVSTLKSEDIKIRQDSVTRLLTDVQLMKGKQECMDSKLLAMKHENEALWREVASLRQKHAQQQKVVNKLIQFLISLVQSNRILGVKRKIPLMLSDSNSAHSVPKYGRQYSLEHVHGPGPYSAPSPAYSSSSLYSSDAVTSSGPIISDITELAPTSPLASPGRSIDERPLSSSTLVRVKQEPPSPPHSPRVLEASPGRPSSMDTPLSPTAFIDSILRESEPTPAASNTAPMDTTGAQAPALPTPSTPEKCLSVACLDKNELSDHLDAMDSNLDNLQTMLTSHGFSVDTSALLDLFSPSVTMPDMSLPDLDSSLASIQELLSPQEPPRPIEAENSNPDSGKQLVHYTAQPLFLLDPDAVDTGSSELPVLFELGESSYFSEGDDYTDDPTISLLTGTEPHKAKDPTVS

[4] = Luminescence Cell-Based Dose Retest to Confirm Inhibitors of Cancer Stem Cells. [Related pubchem assays (depositor defined):AID2717, AID2721]; format: functional; conditions: Homo sapiens
[5] = target: Cytochrome P450 3A4 (Homo sapiens, UniProt P08684);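 also: CYP3A4 tested as one member of a cytochrome P450 panel screen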
Cytochrome P450 3A4, sequence (P08684 whole entry): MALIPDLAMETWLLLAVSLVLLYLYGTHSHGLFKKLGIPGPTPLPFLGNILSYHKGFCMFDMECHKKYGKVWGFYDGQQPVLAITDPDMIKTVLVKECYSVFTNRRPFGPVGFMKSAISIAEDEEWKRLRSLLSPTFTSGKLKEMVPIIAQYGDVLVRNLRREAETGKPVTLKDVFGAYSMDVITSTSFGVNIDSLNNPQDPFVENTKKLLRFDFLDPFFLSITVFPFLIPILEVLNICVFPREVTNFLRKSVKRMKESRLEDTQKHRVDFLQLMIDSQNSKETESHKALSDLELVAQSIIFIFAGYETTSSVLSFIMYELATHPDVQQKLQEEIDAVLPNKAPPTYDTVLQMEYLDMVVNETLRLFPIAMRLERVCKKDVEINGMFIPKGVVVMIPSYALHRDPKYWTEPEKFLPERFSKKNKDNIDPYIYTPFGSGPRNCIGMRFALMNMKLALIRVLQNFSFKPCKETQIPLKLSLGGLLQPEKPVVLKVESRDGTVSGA

[6] = target: T4, Corticotropin-releasing factor receptor 2/Corticotropin-releasing factor-binding protein (Homo sapiens, UniProt P24387+Q13324); test: activators of CRF receptor 2 with binding protein – uHTS hits, confirmation (AID 602473); format: functional; conditions: read-out: EC50_Mean
T4 sequence (Q13324 whole entry): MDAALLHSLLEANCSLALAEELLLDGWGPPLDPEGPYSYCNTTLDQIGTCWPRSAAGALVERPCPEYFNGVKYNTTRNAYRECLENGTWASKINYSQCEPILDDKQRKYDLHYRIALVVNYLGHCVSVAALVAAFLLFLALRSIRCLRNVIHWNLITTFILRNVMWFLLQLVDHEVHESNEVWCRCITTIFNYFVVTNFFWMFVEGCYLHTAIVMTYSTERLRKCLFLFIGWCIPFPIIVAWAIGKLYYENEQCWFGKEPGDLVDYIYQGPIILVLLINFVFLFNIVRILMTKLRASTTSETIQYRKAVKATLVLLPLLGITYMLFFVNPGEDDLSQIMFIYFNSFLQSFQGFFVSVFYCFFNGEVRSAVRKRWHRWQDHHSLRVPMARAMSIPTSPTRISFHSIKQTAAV
T4 sequence (P24387 whole entry): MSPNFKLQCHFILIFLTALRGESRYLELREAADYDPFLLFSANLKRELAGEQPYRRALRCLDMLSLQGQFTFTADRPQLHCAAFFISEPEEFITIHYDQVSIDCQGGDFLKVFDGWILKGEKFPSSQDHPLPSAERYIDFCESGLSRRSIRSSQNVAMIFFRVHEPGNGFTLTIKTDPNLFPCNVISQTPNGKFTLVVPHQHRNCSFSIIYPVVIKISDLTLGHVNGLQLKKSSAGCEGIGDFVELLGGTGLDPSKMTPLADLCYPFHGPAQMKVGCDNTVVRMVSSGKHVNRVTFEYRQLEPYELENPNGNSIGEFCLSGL

[7] = target: Cytochrome P450 2D6 (Homo sapiens, UniProt P10635);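 also: CYP2D6 member of a cytochrome P450 panel assay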
Cytochrome P450 2D6, sequence (P10635 whole entry): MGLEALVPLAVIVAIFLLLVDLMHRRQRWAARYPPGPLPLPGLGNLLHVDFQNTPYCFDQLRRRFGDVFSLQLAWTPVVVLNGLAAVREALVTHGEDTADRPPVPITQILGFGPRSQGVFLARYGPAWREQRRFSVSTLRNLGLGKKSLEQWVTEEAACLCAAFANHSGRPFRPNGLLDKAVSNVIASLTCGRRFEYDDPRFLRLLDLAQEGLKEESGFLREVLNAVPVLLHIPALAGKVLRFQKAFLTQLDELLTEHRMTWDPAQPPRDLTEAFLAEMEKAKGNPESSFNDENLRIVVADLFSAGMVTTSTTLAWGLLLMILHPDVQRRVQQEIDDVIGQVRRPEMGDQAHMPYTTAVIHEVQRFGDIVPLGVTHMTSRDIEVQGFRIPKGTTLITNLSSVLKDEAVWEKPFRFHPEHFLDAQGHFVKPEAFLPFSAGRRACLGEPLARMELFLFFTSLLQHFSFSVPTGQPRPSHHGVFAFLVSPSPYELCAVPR

[8] = Trypanosoma cruzi growth suppression in host cells – NIH3T3 host cells, beta-gal luminescence, confirmation (AID 2044); format: functional, cell-based;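 also: intracellular parasites grown in NIH/3T3 mouse fibroblasts as host cells; luminescent beta-galactosidase reporter signal from transgenic T. cruzi replicating inside host cells; inhibitors lower the luminescence signal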
[9] = NIH3T3 cell viability loss – ATP luminescence, mouse fibroblasts, counter-screen, dose response (AID 2010); format: functional, cell-based;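 also: cells exposed to compound for about 90 hours before reading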
[10] = target: Cytochrome P450 2C19 (Homo sapiens, UniProt P33261); test: Cytochrome panel assay with activity outcomes. Panel member name: p450-cyp2c19 Compounds with AC50 equal or less than 10 uM are considered active; format: functional; conditions: read-out: AC50
Cytochrome P450 2C19, sequence (P33261 whole entry): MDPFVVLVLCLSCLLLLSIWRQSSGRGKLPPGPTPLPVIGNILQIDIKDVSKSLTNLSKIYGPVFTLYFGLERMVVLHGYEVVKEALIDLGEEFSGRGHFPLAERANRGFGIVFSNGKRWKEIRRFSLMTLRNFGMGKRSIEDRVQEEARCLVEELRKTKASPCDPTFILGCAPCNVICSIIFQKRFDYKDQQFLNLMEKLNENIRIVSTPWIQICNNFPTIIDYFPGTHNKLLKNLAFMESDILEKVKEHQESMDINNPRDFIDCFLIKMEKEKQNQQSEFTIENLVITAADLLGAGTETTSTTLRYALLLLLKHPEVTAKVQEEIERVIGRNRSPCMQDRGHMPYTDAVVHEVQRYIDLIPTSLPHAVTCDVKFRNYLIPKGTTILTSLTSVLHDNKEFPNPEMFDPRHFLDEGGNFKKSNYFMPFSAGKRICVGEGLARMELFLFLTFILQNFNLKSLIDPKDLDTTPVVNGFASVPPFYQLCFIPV

[11] = test system: Streptococcus sp. 'group A'; test: Streptococcus pyogenes SK(-)GAS viability under kanamycin – luminescence, BacTiterGlo, confirmation, counter-screen for streptokinase expression inhibitor project, dose response (AID 1900); format: functional, organism-based
[12] = test system: Streptococcus; test: GAS UMAA2166 growth inhibition – luminescence, BacTiterGlo, counter-screen for streptokinase expression inhibitor project, dose response (AID 1915); format: functional, organism-based;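 also: potency for reduction of bacterial viability or growth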

## Cc1ccccc1CS(=O)(=O)c1snnc1C
[1]
  AC50: > 380 µM (inactive)
[2]
  EC50: > 380 µM (inactive)

## COC(=O)Cc1n[nH]c2c1C(c1c[nH]c3ccccc13)C(C#N)=C(N)O2 (stereo not given)
[1]
  AC50: > 380 µM (inactive)
[2]
  EC50: > 380 µM (inconclusive)

## CC(C)(C)c1ccc(C(=O)NC(=S)Nc2nc3c(s2)CCCC3)cc1
[3]
  EC50: 0.192 µM (active)
[4]
  AC50: 2.02 µM (active)

## COc1ccc(NC(=S)N(CCc2nc3cc(C)c(C)cc3[nH]2)Cc2cccnc2)cc1
[5]
  AC50: 0.891 µM (inconclusive)

## Cn1cc(-c2nc3cncnc3n(C3CC3)c2=O)c2ccccc21
[5]
  AC50: 7.94 µM (inconclusive)

## COc1ccc(NC(=O)c2ccc(COc3ccccc3Br)o2)cc1OC
[4]
  AC50: 1.69 µM (active)

## CC1(c2ccc(OC(F)F)cc2)NC(=O)N(CC(=O)Nc2cccc(F)c2)C1=O (stereo not given)
[6]
  EC50: 4.52 µM (active)

## O=c1[nH]cc(NCCc2ccccc2)c(=O)[nH]1
[1]
  AC50: > 380 µM (inconclusive)
[2]
  EC50: 10.1 µM (active)

## FC(F)Oc1ccc(-c2csc(NNC3=NCCCCC3)n2)cc1
[4]
  AC50: 1.77 µM (active)

## O=C1c2cc(Br)ccc2N(Cc2ccc(Br)cc2)S(=O)(=O)C1c1cc(Cl)c(Cl)cc1[N+](=O)[O-] (stereo not given)
[4]
  AC50: 1.06 µM (active)

## CC(C)CN1CCCC2(CCN(C(=O)Oc3ccccc3)CC2)C1
[7]
  AC50: 20 µM (inconclusive)
[5]
  AC50: 25.1 µM (inconclusive)

## O=C1CC/[N+](=C\c2ccccc2)[N-]1
[1]
  AC50: 19.4 µM (active)
[2]
  EC50: 4.58 µM (active)

## Fc1cccc(C2NC(S)=NC3=C2N2CCC3CC2)c1 (stereo not given)
[7]
  AC50: 3.16 µM (inconclusive)
[5]
  AC50: 25.1 µM (inconclusive)

## CCOC(=O)c1nnn(-c2nonc2-n2cccc2)c1CCl
[1]
  AC50: 5.35 µM (active)
[2]
  EC50: 1.42 µM (active)

## COc1cccc(-c2cc3nc(-c4ccccc4)cc(N4CCC5(CC4)OCCO5)n3n2)c1
[8]
  EC50: 1.82 µM (active)
[9]
  EC50: > 30 µM (not active)
[10]
  AC50: 2 µM (inconclusive)
[5]
  AC50: 20 µM (inconclusive)

## Cc1[nH]c2ccc(F)cc2c1CCN(Cc1cccnc1)C(S)=Nc1ccc(F)cc1
[8]
  EC50: 0.705 µM (active)
[9]
  EC50: > 30 µM (not active)
[1]
  AC50: 17.2 µM (active)
[2]
  EC50: 93.4 µM (active)

## Cc1ccc(NC(=O)C2C3CCCC2C3c2ccccc2)cc1C (stereo not given)
[5]
  AC50: 8.91 µM (inconclusive)

## COC(=O)c1c(-c2ccc(OC)cc2)oc2ccc(-c3cc(OC)c(OC)c(OC)c3)cc12
[4]
  AC50: 5.85 µM (active)

## CCCC1CC(C(=O)NC(C(C)Cl)C2OC(SC)C(O)C(O)C2O)N(C)C1 (stereo not given)
[11]
  EC50: < 0.06 µM (active)
[12]
  EC50: < 0.06 µM (active)

## CCn1c(=O)c(C(=O)NCCc2ccccc2)c(O)c2ccccc21
[4]
  AC50: 6.91 µM (active)

## CC(=O)OCC1=C(C(=O)O)N2C(=O)C(NC(=O)C(C)Cn3cc(Cl)cn3)C2SC1 (stereo not given)
[11]
  EC50: 1.39 µM (active)
[12]
  EC50: 1.27 µM (active)

## O=[N+]([O-])c1cc(Cl)cc2c1nc(NCCO)c1ccccc12
[5]
  AC50: 3.16 µM (inconclusive)

## CCOC(=O)Cn1cc(/C=N/NC(=O)CC#N)c2ccccc21
[1]
  AC50: 61.1 µM (active)
[2]
  EC50: 6.38 µM (active)

## C/C=C(/C)C(=O)OC1CC(C)(C)C[C@H]2C3=CC[C@@H]4[C@@]5(C)CCC(O[C@@H]6O[C@@H](C(=O)O)[C@@H](O)C(O[C@@H]7OC[C@H](O)[C@@H](O)[C@@H]7O[C@@H]7OC(CO)C(O)[C@@H](O)[C@@H]7O)C6O[C@@H]6OC(CO)C(O)C(O)C6O)[C@@](C)(CO)[C@@H]5CC[C@]4(C)[C@]3(C)CC(O)[C@@]12CO (stereo not given in full)
[6]
  EC50: 5.49 µM (active)

## CCNc1ncc2nc(-c3cn(C)c4ccccc34)c(=O)n(CCC#N)c2n1
[5]
  AC50: 12.6 µM (inconclusive)

## CCCCOc1ccc(C2C3CN(C(=O)OCC)CC=C3C(C#N)=C(N)C2(C#N)C#N)cc1OC (stereo not given)
[1]
  AC50: > 380 µM (inactive)
[2]
  EC50: 29.8 µM (active)

## Cc1nc2cnc(OCc3ccccc3)nc2n(CCc2ccccc2)c1=O
[5]
  AC50: 25.1 µM (inconclusive)

## O=S(=O)(NC1CC(NS(=O)(=O)OCC(Cl)(Cl)Cl)C2CCCCC12)OCC(Cl)(Cl)Cl (stereo not given)
[4]
  AC50: 1.31 µM (active)

## COc1ccccc1Nc1nc(-c2sc(NC(=O)c3ccccc3)nc2C)cs1
[10]
  AC50: 3.16 µM (inconclusive)
[5]
  AC50: 15.8 µM (inconclusive)

## Cc1cccc(C(=O)OCC(=O)Nc2nnc(-c3ccccc3)o2)c1O
[11]
  EC50: 3.11 µM (active)
[12]
  EC50: 4.74 µM (active)
